Assay results: patent US12344610B2, “APOL1 inhibitors and methods of use” (Maze Therapeutics, Inc., priority 2022, dated 2025)

tested on: Trypanosoma brucei Lister 427 VSG221 with APOL1 G1 recombinant protein; test: APOL1 G1 trypanosome cell rescue assay (Example B5); type: cell-based; conditions: Trypanosoma brucei, 20 h, read-out: APOL1 G1 Trypanosome Rescue EC50, Trypanosoma brucei Lister 427 VSG221 with APOL1 G1 recombinant protein, 20 hours, CellTiter-Glo; geometric mean of at least 2 assay runs; † = single assay run
Method in brief: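 Recombinant APOL1 protein, dispensed from a 2 μg/mL stock, and 250 T. brucei per well were co-incubated with test compound (0.4% DMSO) for 20 h. Viability: CellTiter-Glo luminescence.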

Q: `CN1c2ccc(OCCN3CCC4(CC3)C(=O)Nc3ccc(Cl)cc34)cc2CCS1(=O)=O` [Compound 103, 6-(2-{5-chloro-2-oxo-1,2-dihydrospiro[indole-3,4′-piperidin]-1′-yl}ethoxy)-1-methyl-3,4-dihydro-1H-2λ^6,1-benzothiazine-2,2-dione] was tested. Which EC50 did it give?
A: 0.17 µM

Q: How did the EC50 turn out when `CN1c2ccc(OCCN3CCC4(CC3)C(=O)Nc3ccc(C#N)cc34)cc2CCS1(=O)=O` [Compound 104, 1′-{2-[(1-methyl-2,2-dioxo-3,4-dihydro-1H-2λ^6,1-benzothiazin-6-yl)oxy]ethyl}-2-oxo-1,2-dihydrospiro[indole-3,4′-piperidine]-5-carbonitrile] was run?
A: 0.726 µM

Q: With `N#Cc1ccc2c(c1)C1(CCN(CCOc3ccc4c(c3)CCC(=O)N4CC(F)F)CC1)C(=O)N2` [Compound 105, 1′-(2-{[1-(2,2-difluoroethyl)-2-oxo-1,2,3,4-tetrahydroquinolin-6-yl]oxy}ethyl)-2-oxo-1,2-dihydrospiro[indole-3,4′-piperidine]-5-carbonitrile] as the molecule, how does the EC50 read?
A: 0.274 µM

Q: How did the EC50 turn out when `O=C1CCc2cc(OCCN3CCC4(CC3)C(=O)Nc3ccc(Cl)cc34)ccc2N1CC(F)F` [Compound 106, 5-chloro-1′-(2-{[1-(2,2-difluoroethyl)-2-oxo-1,2,3,4-tetrahydroquinolin-6-yl]oxy}ethyl)-1,2-dihydrospiro[indole-3,4′-piperidin]-2-one] was run?
A: 0.0918 µM

Q: For `CS(=O)(=O)c1ccc(OCCN2CCC3(CC2)C(=O)Nc2ccc(C#N)cc23)cc1C(F)(F)F` [Compound 107, 1′-{2-[4-methanesulfonyl-3-(trifluoromethyl)phenoxy]ethyl}-2-oxo-1,2-dihydrospiro[indole-3,4′-piperidine]-5-carbonitrile], which EC50 is on record?
A: 0.0935 µM

Q: For `CS(=O)(=O)c1ccc(OCCN2CCC3(CC2)C(=O)Nc2ccc(Cl)cc23)cc1C(F)(F)F` [Compound 108, 5-chloro-1′-{2-[4-methanesulfonyl-3-(trifluoromethyl)phenoxy]ethyl}-1,2-dihydrospiro[indole-3,4′-piperidin]-2-one], which EC50 is on record?
A: 0.0307 µM

Q: For `CS(=O)(=O)C1(c2ccc(OCCN3CCC4(CC3)C(=O)Nc3ccc(C#N)cc34)cc2)COC1` [Compound 109, 1′-{2-[4-(3-methanesulfonyloxetan-3-yl)phenoxy]ethyl}-2-oxo-1,2-dihydrospiro[indole-3,4′-piperidine]-5-carbonitrile], which EC50 is on record?
A: 0.385 µM

Q: How did the EC50 turn out when `Cc1cc(OCCN2CCC3(CC2)C(=O)Nc2ccc(Cl)cc23)ccc1S(C)(=O)=O` [Compound 110, 5-chloro-1′-[2-(4-methanesulfonyl-3-methylphenoxy)ethyl]-1,2-dihydrospiro[indole-3,4′-piperidin]-2-one] was run?
A: 0.0877 µM

Q: How did the EC50 turn out when `Cc1cc(OCCN2CCC3(CC2)C(=O)Nc2ccc(C#N)cc23)ccc1S(C)(=O)=O` [Compound 111, 1′-[2-(4-methanesulfonyl-3-methylphenoxy)ethyl]-2-oxo-1,2-dihydrospiro[indole-3,4′-piperidine]-5-carbonitrile] was run?
A: 0.362 µM

Q: `O=C1Nc2ccc(Cl)cc2C12CCN(CCOc1ccc(S(=O)(=O)C(F)F)cc1)CC2` [Compound 112, 5-chloro-1′-[2-(4-difluoromethanesulfonylphenoxy)ethyl]-1,2-dihydrospiro[indole-3,4′-piperidin]-2-one] was tested. Which EC50 did it give?
A: 0.0696 µM

Q: `N#Cc1ccc2c(c1)C1(CCN(CCOc3ccc(S(=O)(=O)C(F)F)cc3)CC1)C(=O)N2` [Compound 113, 1′-[2-(4-difluoromethanesulfonylphenoxy)ethyl]-2-oxo-1,2-dihydrospiro[indole-3,4′-piperidine]-5-carbonitrile] was tested. Which EC50 did it give?
A: 0.154 µM

Q: With `O=C1CCc2cc(OCCN3CCC4(CC3)C(=O)Nc3ccc(Cl)cc34)ccc2N1[C@H]1C[C@@H](O)C1` [Compound 114, 5-chloro-1′-[2-({2-oxo-1-[(cis)-3-hydroxycyclobutyl]-1,2,3,4-tetrahydroquinolin-6-yl}oxy)ethyl]-1,2-dihydrospiro[indole-3,4′-piperidin]-2-one] as the molecule, how does the EC50 read?
A: 0.104 µM

Q: For `CN(c1c(F)cc(OCCN2CCC3(CC2)C(=O)Nc2ccc(Cl)cc23)cc1F)S(C)(=O)=O` [Compound 127, N-[4-(2-{5-chloro-2-oxo-1,2-dihydrospiro[indole-3,4′-piperidin]-1′-yl}ethoxy)-2,6-difluorophenyl]-N-methylmethanesulfonamide], which EC50 is on record?
A: 0.0839 µM

Q: How did the EC50 turn out when `CN(c1c(F)cc(OCCN2CCC3(CC2)C(=O)Nc2ccc(C#N)cc23)cc1F)S(C)(=O)=O` [Compound 128, N-[4-(2-{5-cyano-2-oxo-1,2-dihydrospiro[indole-3,4′-piperidin]-1′-yl}ethoxy)-2,6-difluorophenyl]-N-methylmethanesulfonamide] was run?
A: 0.383 µM

Q: With `Cc1cc(OCCN2CCC3(CC2)C(=O)Nc2ccc(Cl)cc23)cc(C)c1S(C)(=O)=O` [Compound 129, 5-chloro-1′-[2-(4-methanesulfonyl-3,5-dimethylphenoxy)ethyl]-1,2-dihydrospiro[indole-3,4′-piperidin]-2-one] as the molecule, how does the EC50 read?
A: 0.0695 µM

Q: For `Cn1c(=O)oc2cc(OCCN3CCC4(CC3)C(=O)Nc3ccc(Cl)cc34)ccc21` [Compound 131, 5-chloro-1′-{2-[(3-methyl-2-oxo-2,3-dihydro-1,3-benzoxazol-6-yl)oxy]ethyl}-1,2-dihydrospiro[indole-3,4′-piperidin]-2-one], which EC50 is on record?
A: 0.176 µM

Q: How did the EC50 turn out when `Cn1c(=O)oc2cc(OCCN3CCC4(CC3)C(=O)Nc3ccc(C#N)cc34)ccc21` [Compound 132, 1′-{2-[(3-methyl-2-oxo-2,3-dihydro-1,3-benzoxazol-6-yl)oxy]ethyl}-2-oxo-1,2-dihydrospiro[indole-3,4′-piperidine]-5-carbonitrile] was run?
A: 0.731 µM

Q: How did the EC50 turn out when `CS(=O)(=O)C1(c2c(F)cc(OCCN3CCC4(CC3)C(=O)Nc3ccc(Cl)cc34)cc2F)COC1` [Compound 136, 5-chloro-1′-{2-[3,5-difluoro-4-(3-methanesulfonyloxetan-3-yl)phenoxy]ethyl}-1,2-dihydrospiro[indole-3,4′-piperidin]-2-one] was run?
A: 0.0371 µM

Q: `CC(c1c(F)cc(OCCN2CCC3(CC2)C(=O)Nc2ccc(C#N)cc23)cc1F)S(C)(=O)=O` (centres unmarked) [Compound 137, 1′-{2-[3,5-difluoro-4-(1-methanesulfonylethyl)phenoxy]ethyl}-2-oxo-1,2-dihydrospiro[indole-3,4′-piperidine]-5-carbonitrile] was tested. Which EC50 did it give?
A: 0.454 µM

Q: How did the EC50 turn out when `Cc1cc(OCCN2CCC3(CC2)C(=O)Nc2ccc(C#N)cc23)cnc1S(C)(=O)=O` [Compound 140, 1′-{2-[(6-methanesulfonyl-5-methylpyridin-3-yl)oxy]ethyl}-2-oxo-1,2-dihydrospiro[indole-3,4′-piperidine]-5-carbonitrile] was run?
A: 0.653 µM

Q: Which EC50 does the source give for `CC(C)N1C(=O)Cc2cc(OCCN3CCC4(CC3)C(=O)Nc3ccc(C#N)cc34)ccc21` [Compound 144, 2-oxo-1′-(2-{[2-oxo-1-(propan-2-yl)-2,3-dihydro-1H-indol-5-yl]oxy}ethyl)-1,2-dihydrospiro[indole-3,4′-piperidine]-5-carbonitrile] here?
A: 0.358 µM

Q: Which EC50 does the source give for `CC(C)N1C(=O)Cc2cc(OCCN3CCC4(CC3)C(=O)Nc3ccc(Cl)cc34)ccc21` [Compound 145, 5-chloro-1′-(2-{[2-oxo-1-(propan-2-yl)-2,3-dihydro-1H-indol-5-yl]oxy}ethyl)-1,2-dihydrospiro[indole-3,4′-piperidin]-2-one] here?
A: 0.118 µM

Q: `CN1Cc2cc(OCCN3CCC4(CC3)C(=O)Nc3ccc(Cl)cc34)ccc2C1=O` [Compound 146, 5-chloro-1′-{2-[(2-methyl-1-oxo-2,3-dihydro-1H-isoindol-5-yl)oxy]ethyl}-1,2-dihydrospiro[indole-3,4′-piperidin]-2-one] was tested. Which EC50 did it give?
A: 0.427 µM
